The nature of data set [1]: Half life in human liver microsomes at 3 uM in presence of NADPH by LC-MS/MS analysis. The data set is classed as ADME.
A short description of data set [2]: Intrinsic clearance in human liver microsomes assessed per mg of protein at 3 uM in presence of NADPH by LC-MS/MS analysis. The data set is classed as ADME. As to conditions: read-out: CLH. In general terms: Liver microsomes are a subcellular fraction often used to study metabolism.

The record followed here is ChEMBL document CHEMBL3826911, “Rational design and synthesis of novel anti-prostate cancer agents bearing a 3,5-bis-trifluoromethylphenyl moiety” (Bioorg Med Chem Lett, 2016).

`COc1ccc2c(c1)[C@]13CCCC[C@@H]1[C@H](C2)N(C)CC3` [DEXTROMETHORPHAN]: in data set [1], the half-life (usually how long it takes for the measured level to halve) at 3 µM amounted to 1.05 h. Moreover, the microsomal CLint at 3 µM in data set [2] stood at 21.9 µL/min/mg.
